The test system of experiment [1] is phospho(Ser63)-c-jun in HK-2 cells. Description: Cell-based assay for JNK inhibitors: in-cell ELISA of TNFα-stimulated phospho(Ser63)-c-jun in HK-2 cells. To be noted: Homo sapiens, 10 ng/mL TNFα, 60 min preincubation with compound. As to the method: Cell-Based Assay for JNK Inhibitors
The cell-based assay employed the in-cell ELISA method to determine the ability of compounds to prevent the generation of phospho(Ser63)-c-jun in HK-2 cells (human proximal tubule cells) in response to stimulation with tumor necrosis factor α (TNFα). In brief, for quantification of phospho(Ser63)-c-jun, the cells (in 96-well format) were fixed and permeablized then incubated sequentially with a rabbit anti-phospho-c-jun First Antibody specific for the presence of the phospho-Ser63 epitope and a donkey anti-rabbit IgG Second Antibody linked to horseradish peroxidase (HRP) for colorimetric quantitation of binding. For determination of non-specific binding of the First Antibody, Blank wells were preincubated with a mouse anti-phospho(Ser63)-c-jun Blocking Antibody that prevented specific binding of the First Antibody to the phospho-Ser63 epitope, but which was not recognized by the donkey anti-rabbit IgG Second Antibody. […] Blank wells received no TNFα stimulation or compound. Additional Control wells received TNFα stimulation, but no compound. The signal obtained in this case was considered the value for 0% inhibition (Control value).
Stock cultures of HK-2 cells (ATCC, Manassas, Va.) were grown under a 5% CO2/[…] atmosphere at 37 degrees C. in Keratinocyte-SFM medium (KSFM, Invitrogen, Grand Island, N.Y.) containing 5 μg/L epidermal growth factor and 5 mg/L bovine pituitary extract (both supplied with the medium), additionally supplemented with 10% (v/v) fetal calf serum (FCS; Invitrogen, Grand Island, N.Y.) and 1% (v/v) antibiotic-antimycotic (ABAM: Sigma, St. Louis, Mo.). For assays, cells were seeded in collagen coated 96-well polystyrene plates (BD Biosciences, Franklin Lakes, N.J.) at a density of 40,000 cells/well and cultured for 24 h in the same medium (100 μL/well) followed by a further 16-24 h in 100 μL of similar medium, but without FCS. […] Cells were incubated for a further 30 minutes and then the medium was aspirated and the wells washed with 100 μL/well PBS followed by the addition of 100 μL 3.7% (v/v) Formaldehyde (Fisher Scientific, Fair Lawn, N.J.) in PBS. Plates were then allowed to stand at room temperature for 20 minutes before being washed with 200 μL/well of PBS. (Further steps were performed immediately or the plates were stored at 4 degrees C. and the assay completed the next day.) To each well was added 100 μL 1% (v/v) TritonX-100 (Sigma, St. Louis, Mo.) in PBS followed by 20 minutes standing at room temperature, washing with 200 μL/well PBS, the addition of 100 μL/well of Quenching buffer (1% (v/v) hydrogen peroxide (Sigma, St. Louis, Mo.) and 0.1% (w/v) sodium azide (Fisher Scientific, Fair Lawn, N.J.)) in PBS and a further 20 minutes at room temperature. Plates were then washed twice with 200 μL/well of 0.1% (v/v) Tween-20 (Teknova, Hollister, Calif.) in PBS before addition of 200 μL/well of 2% BSA/0.10% Tween-20 in PBS and a further 1 hour at room temperature. At this time, buffer was removed from Blank wells and replaced with 90 μL/well of mouse anti-phospho-c-jun-Ser63 (BD Bioscience, 558036) diluted 1:4000 in PBS containing 1% BSA/0.1% Tween-20 (Antibody Dilution Buffer). All other wells are replaced with 90 μL/well of rabbit anti-phospho-c-jun-Ser63 (Cell Signaling, 9261) diluted 1:250 in Antibody Dilution Buffer. After a further one hour, rabbit anti-phospho-c-jun-Ser63 is added directly to the solution in the Blank wells resulting in 1:250 dilution of this antibody. Plates were then placed on a slowly rotating platform at 4 degrees C. overnight. Wells were then washed thrice with 200 μL/well PBS/0.1% Tween-20. After addition of the third wash, the plates were placed on a slowly rotating platform for 15 minutes at room temperature. […]

In a further experiment the target is JNK1 (Homo sapiens, UniProt P45983). The experiment in a line: In vitro JNK1 Assay (TR-FRET, phosphorylation of GST-c-Jun). It counts as biochemical. Particulars: 0.2 nM JNK1, 26.7 nM GST-c-Jun, 2 μM ATP. As to the method:
Phosphorylation of GST-c-Jun protein (amino acid residues 1-79) was measured as JNK1 activity. […] The reaction buffer contained 50 mM HEPES, pH 7.0, 10 mM MgCl2, 1 mM DTT, 0.1 mM Na3 VO4 and 0.2 mg/mL BSA. After 30 min. incubation at room temperature, the reaction was terminated by adding buffer containing 8 mM EDTA and a polyclonal anti-phospho-c-Jun antibody (Cell Signaling #9261L), followed by an additional incubation of 30 min. at room temperature. […] Time-resolved Fluorescence Resonance Energy Transfer (TR-FRET) signals were measured 1 hr. later on the EnVision reader (Perkin Elmer). Compound potency was assessed at 10 serially diluted concentrations. Percentage of inhibition at each concentration was determined to generate an IC50 value for each compound.

The structures appear in SMILES notation.

JNK1, sequence (P45983 whole entry, species assumed, the tested form may be a part): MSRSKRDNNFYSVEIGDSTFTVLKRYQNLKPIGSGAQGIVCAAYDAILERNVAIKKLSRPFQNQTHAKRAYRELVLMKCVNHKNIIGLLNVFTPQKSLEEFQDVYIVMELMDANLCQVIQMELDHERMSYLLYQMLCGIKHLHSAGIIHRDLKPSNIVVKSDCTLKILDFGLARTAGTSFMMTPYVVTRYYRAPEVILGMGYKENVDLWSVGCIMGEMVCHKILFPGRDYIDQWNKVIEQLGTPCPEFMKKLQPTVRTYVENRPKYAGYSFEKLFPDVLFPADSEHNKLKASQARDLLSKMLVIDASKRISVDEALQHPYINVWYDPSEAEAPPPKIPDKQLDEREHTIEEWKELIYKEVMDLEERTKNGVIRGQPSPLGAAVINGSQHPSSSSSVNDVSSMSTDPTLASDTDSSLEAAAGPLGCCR

With `COC(=O)c1c(Cc2ccc(C(=O)N[C@H]3[C@@H]4C[C@@H]5C[C@H]3C[C@@](O)(C5)C4)cc2)c(=O)c2cccnc2n1-c1ccccc1` [Compound I-2, rel-3-[4-((1S,2R,3R,5S,7S)-5-Hydroxy-adamantan-2-ylcarbamoyl)-benzyl]-4-oxo-1-phenyl-1,4-dihydro-[1,8]naphthyridine-2-carboxylic acid methyl ester], the EC50 in experiment [1] was 8500 nM. For the same compound, the IC50 against JNK1 is 47 nM. The like results for `COC(=O)c1c(Cc2ccc(C(=O)N[C@@H]3[C@@H]4C[C@@H]5C[C@H]3C[C@@](O)(C5)C4)cc2)c(=O)c2ccc(Cl)cc2n1-c1ccccc1` [Compound I-3, rel-7-Chloro-3-[4-((1S,2S,3R,5S,7S)-5-hydroxy-adamantan-2-ylcarbamoyl)-benzyl]-4-oxo-1-phenyl-1,4-dihydro-quinoline-2-carboxylic acid methyl ester] were, in that order, 5800 nM and 12 nM.

Turning to `COC(=O)c1c(Cc2ccc(C(=O)N[C@H]3[C@@H]4C[C@@H]5C[C@H]3C[C@@](O)(C5)C4)cc2)c(=O)c2ccc(Cl)cc2n1-c1ccccc1` [Compound I-4, rel-7-Chloro-3-[4-((1S,2R,3R,5S,7S)-5-hydroxy-adamantan-2-ylcarbamoyl)-benzyl]-4-oxo-1-phenyl-1,4-dihydro-quinoline-2-carboxylic acid methyl ester], in experiment [1], the EC50 was 6300 nM. Moreover, at JNK1, 51 nM corresponded to half-maximal inhibition (IC50). Take `O=C(N[C@@H]1[C@@H]2C[C@@H]3C[C@H]1C[C@@](O)(C3)C2)c1ccc(Cc2cn(-c3ccccn3)c3cc(Cl)ccc3c2=O)cc1` [Compound I-5, rel-4-(7-Chloro-4-oxo-1-pyridin-2-yl-1,4-dihydro-quinolin-3-ylmethyl)-N-((1S,2S,3R,5S,7S)-5-hydroxy-adamantan-2-yl)-benzamide]: it took 330 nM to reach half-maximal inhibition against JNK1 (IC50). This lies in the sub-micromolar range.

As for `COC(=O)c1c(Cc2ccc(C(=O)N[C@@H]3[C@@H]4C[C@@H]5C[C@H]3C[C@@](OC(C)=O)(C5)C4)cc2)c(=O)c2ccc(Cl)cc2n1-c1ccccc1` [Compound I-6, rel-3-[4-((1S,2S,3R,5S,7S)-5-Acetoxy-adamantan-2-ylcarbamoyl)-benzyl]-7-chloro-4-oxo-1-phenyl-1,4-dihydro-quinoline-2-carboxylic acid methyl ester], the EC50 in experiment [1] is 4400 nM. This compound also came in with an IC50 at JNK1 of 110 nM. In the case of `COC(=O)c1c(Cc2ccc(C(=O)N[C@H]3[C@@H]4C[C@@H]5C[C@H]3C[C@@](N)(C5)C4)cc2)c(=O)c2cccnc2n1-c1ccccc1` [Compound I-8, rel-3-[4-((1S,2R,3R,5S,7S)-5-amino-adamantan-2-ylcarbamoyl)-benzyl]-4-oxo-1-phenyl-1,4-dihydro-[1,8]naphthyridine-2-carboxylic acid methyl ester], in experiment [1], the EC50 turned out to be 44000 nM. On to `COC(=O)c1c(Cc2ccc(C(=O)N[C@@H]3[C@@H]4C[C@@H]5C[C@H]3C[C@@](N)(C5)C4)cc2)c(=O)c2ccc(Cl)cc2n1-c1ccccc1` [Compound I-9, rel-3-[4-((1S,2S,3R,5S,7S)-5-Amino-adamantan-2-ylcarbamoyl)-benzyl]-7-chloro-4-oxo-1-phenyl-1,4-dihydro-quinoline-2-carboxylic acid methyl ester], for which, in experiment [1], the EC50 was determined as 3200 nM. In addition, inhibition against JNK1 was half-maximal at 27 nM (IC50). The corresponding values for `COC(=O)c1c(Cc2ccc(C(=O)N[C@@H]3[C@@H]4C[C@@H]5C[C@H]3C[C@@](NC(C)=O)(C5)C4)cc2)c(=O)c2ccc(Cl)cc2n1-c1ccccc1` [Compound I-10, rel-3-[4-((1S,2S,3R,5S,7S)-5-Acetylamino-adamantan-2-ylcarbamoyl)-benzyl]-7-chloro-4-oxo-1-phenyl-1,4-dihydro-quinoline-2-carboxylic acid methyl ester] are 3500 nM and 30 nM. The corresponding values for `COC(=O)c1c(Cc2ccc(C(=O)N[C@@H]3[C@@H]4C[C@@H]5C[C@H]3C[C@@](NC(=O)C(C)(C)C)(C5)C4)cc2)c(=O)c2ccc(Cl)cc2n1-c1ccccc1` [Compound I-11, rel-7-Chloro-3-{4-[(1S,2S,3R,5S,7S)-5-(2,2-dimethyl-propionylamino)-adamantan-2-ylcarbamoyl]-benzyl}-4-oxo-1-phenyl-1,4-dihydro-quinoline-2-carboxylic acid methyl ester] are 6900 nM and 62 nM.

With `COC(=O)c1c(Cc2ccc(C(=O)N[C@@H]3[C@@H]4C[C@@H]5C[C@H]3C[C@@](NC(=O)C(C)(C)OC(C)=O)(C5)C4)cc2)c(=O)c2ccc(Cl)cc2n1-c1ccccc1` [Compound I-12, rel-3-{4-[(1S,2S,3R,5S,7S)-5-(2-Acetoxy-2-methyl-propionylamino)-adamantan-2-ylcarbamoyl]-benzyl}-7-chloro-4-oxo-1-phenyl-1,4-dihydro-quinoline-2-carboxylic acid methyl ester], the EC50 in experiment [1] turned out to be 3300 nM. The compound also yielded an IC50 at JNK1 of 17 nM. For `COC(=O)c1c(Cc2ccc(C(=O)N[C@@H]3[C@@H]4C[C@@H]5C[C@H]3C[C@@](NC(=O)C(C)(C)O)(C5)C4)cc2)c(=O)c2ccc(Cl)cc2n1-c1ccccc1` [Compound I-13, rel-7-Chloro-3-{4-[(1S,2S,3R,5S,7S)-5-(2-hydroxy-2-methyl-propionylamino)-adamantan-2-ylcarbamoyl]-benzyl}-4-oxo-1-phenyl-1,4-dihydro-quinoline-2-carboxylic acid methyl ester], in experiment [1], the EC50 is 1900 nM. The same compound came in with an IC50 against JNK1 of 42 nM. The corresponding values for `COC(=O)c1c(Cc2ccc(C(=O)N[C@@H]3[C@@H]4C[C@@H]5C[C@H]3C[C@@](NS(=O)(=O)C3CC3)(C5)C4)cc2)c(=O)c2ccc(Cl)cc2n1-c1ccccc1` [Compound I-14, rel-7-Chloro-3-[4-((1S,2S,3R,5S,7S)-5-cyclopropanesulfonylamino-adamantan-2-ylcarbamoyl)-benzyl]-4-oxo-1-phenyl-1,4-dihydro-quinoline-2-carboxylic acid methyl ester] are 3100 nM and 26 nM. The like results for `COC(=O)c1c(Cc2ccc(C(=O)N[C@@H]3[C@@H]4C[C@@H]5C[C@H]3C[C@@](NS(C)(=O)=O)(C5)C4)cc2)c(=O)c2ccc(Cl)cc2n1-c1ccccc1` [Compound I-15, rel-7-Chloro-3-[4-((1S,2S,3R,5S,7S)-5-methanesulfonylamino-adamantan-2-ylcarbamoyl)-benzyl]-4-oxo-1-phenyl-1,4-dihydro-quinoline-2-carboxylic acid methyl ester] were, in that order, 3200 nM and 57 nM.

Source of the values: patent US8471027B2, “Adamantyl compounds” (Hoffmann-La Roche Inc., priority 2011, dated 2013).
